Source: publication PMC10126473 (Frontiers in Pharmacology, 2023)
“And” between values parts separate entries of the source, which are not always exact repeats. Equal values may be shown once. Read-outs that look alike come from different tables or passages of the source.

What was measured:
SARS-CoV-2 = system: SARS-CoV-2; design: method as in Huang et al., 2022; conditions: cytopathic effect assay and cytotoxicity counter screen; ref Huang et al., 2022; cited from earlier work
[1] = Plasma protein binding, equilibrium dialysis (RED device); type: in vitro ADME, human; conditions: read-out: Fup (unbound fraction in plasma)
Method: Plasma protein binding was determined with equilibrium dialysis method using the Rapid Equilibration Dialysis (RED) device (Thermo Fisher Catalog # 90006). The assay was performed using manufacturer’s procedures. Briefly, plasma spiked with a test compound (5 µM) was added to the plasma chamber of the RED device. Blank potassium phosphate buffer (100 mM) was added to the buffer chamber of the RED device and the plate was incubated at 37°C. Aliquots of the buffer and the plasma were taken at 0 and 4 h, and the concentrations of free and bound test compounds were determined using the previously described LC-MS method ([Shah et al., 2016]).

[2] = Kinetic aqueous solubility (Pion µSOL assay); conditions: pH 7.4
Method: Samples were incubated at room temperature for 6 h and vacuum-filtered using Tecan Te-Vac to remove any precipitates. The concentration of the compound in the filtrate was measured via UV absorbance (λ: 250–498 nm). […] All compounds were tested in duplicates. The kinetic solubility (µg/mL) of compounds was calculated using the µSOL Evolution software.

[3] = PBPK model (GastroPlus): simulation and model parameters incl. permeability surface product and scaled metabolic kinetics, human; conditions: for Liver Vmax: in vivo (scaled)
[4] = Hamster PK and lung concentration study (non-compartmental analysis); conditions: for half-life: t1/2 Observed; for Tmax: Tmax Observed
Method: For the IV group, a single bolus IV dose of 3 mg/kg of PDN was administered to 24 hamsters (3 hamsters per time point). For the PO group, a dose of 30 mg/kg of PDN was administered via oral gavage to 21 hamsters (3 hamsters per time point). The formulation used for both IV and PO was 20% HP-β-CD in water (0.6 mg/mL PDN for IV and 3 mg/mL for PO). All dosing solutions were freshly prepared on the day of dosing. […] After collection, tissues were weighed and frozen. All blood samples were centrifuged at 4°C to obtain plasma. Plasma samples were transferred to tubes preloaded with NaF (final concentration at 5 mM in 200 µL plasma) and stored at −80°C until analysis.
For fat tissue, an additional 3-fold volume of acetonitrile was added to the water homogenate and was vortexed in a shaker for another 30 min.
A 10 μ aliquot of samples, blank controls (blank plasma or tissue homogenates), quality controls (QC), and standards were added into 200 μ acetonitrile solution with 100 ng/mL tolbutamide (internal standard, IS). All samples were then thoroughly shaken for 5 min to precipitate proteins. The samples were centrifuged at 3000 rpm and 4°C for 30 min. The supernatant was injected for UPLC-MS/MS analysis.
The mobile phase consisted of 0.1% formic acid in water (A) and 0.1% formic acid in acetonitrile (B), the flow rate was 600 μL/min. […] All analyses were carried out using a Waters Acquity I-Class UPLC interfaced with a Waters Xevo TQ-S mass spectrometer. The mass spectrometer multiple reaction monitoring (MRM) experiment was operated with an ESI source at negative mode with spray voltage of 1 kV, and temperature of 600°C. Both Q1 and Q3 were set at unit resolution. […] The correlation coefficients of the calibration curves were all greater than 0.99. […] The linear range, precision and accuracy of QCs in various tissues and plasma are shown in Supplementary Table S1 and Supplementary Table S2.
The area under the concentration vs. time curve (AUC) was calculated using the linear trapezoidal method. The terminal rate constant (λ) was obtained from the slope of at least three data points of the apparent terminal phase of the log linear concentration vs. time curve. AUC0–∞ was estimated as the sum of the AUC0–t (where t is the time of the last measurable concentration) and Ct/λ. […] Bioavailability (F) was calculated using ratios of dose-normalized AUC of PO and IV administration.

[5] = Metabolic stability in plasma; conditions: for Plasma k: mouse, in vitro
[6] = Metabolic stability in plasma; conditions: for Plasma k: human, in vitro
Method: The incubation was carried out at 37°C for 15, 30, and 60 min. The reaction in plasma or liver microsomes was quenched by adding 200 μL of cold acetonitrile (containing 100 ng/mL tolbutamide as internal standard). After a 20 min centrifugation at 3000 rpm, 4°C, the supernatant was transferred to an analysis plate and analyzed by UPLC-MS/MS as described in Section 2.4.2.
The substrate disappearance half-life (t1/2) was estimated by regression analysis of the semi-logarithmic (ln Conc vs. time) plots.

[7] = PBPK model (GastroPlus): simulation and model parameters incl. permeability surface product and scaled metabolic kinetics, mouse; conditions: for Liver Vmax / Plasma k: in vivo (scaled)
Method: CL in vitro,app expressed as mL/min/mg microsomes were scaled to the predicted CLintrinsic using scaling factor (SF), microsome level and liver weight as indicated below: CLintrinsic=CLin vitro,app×SF×liver weight×microsome level per gram liver
All modeling and simulation were carried out using GastroPlus version 9.5 (Simulations Plus Inc., CA). Physiochemical parameters including blood-to-plasma ratio (Rbp), pKa, and logP were predicted by ADMET predictor (Simulations Plus Inc., CA). Physiologies of all species, including organ weights, volumes, tissue compositions, and blood perfusion rates, were generated by the program’s internal module. Tissue intracellular unbound fractions were generated by GastroPlus based on predicted or experimentally determined physiochemical and chemical-biological parameters including pKa, logP, plasma unbound fractions (Fup), Rbp, solubility, and PAMPA permeability. The PBPK model structure is illustrated in Figure 2 and its parameters are summarized in Supplementary Tables S3–6. The default absorption and dissolution model was applied and effective intestine permeability was predicted by a built-in correlation from the experimental PAMPA permeability result. Parameters including partition coefficients in tissue (Kp), CLintrinsic, and permeability surface area product (PStc) were estimated by fitting the model to experimental data using the optimization module in GastroPlus with objective function weights at 1/(y + ŷ)^2, where y is the observed value and ŷ is the predicted value.
Model parameter estimation of all plasma-tissue partition coefficients (Kp) was performed simultaneously using both the IV and PO datasets. […] The experimentally determined pharmacokinetic profiles were compared with the model simulations.

[8] = conversion to Nc, in vivo, predicted from in vitro liver parameters
[9] = male, LVG golden Syrian, hamster, in vivo, iv, 3 mg/kg
[10] = male, LVG golden Syrian, hamster, in vivo, po, 30 mg/kg
[11] = male, LVG golden Syrian, hamster, in vivo, po, 30 mg/kg, hamsters, PO 30 mg/kg PDN, lung
[12] = male, LVG golden Syrian, hamster, in vivo, po, 30 mg/kg, hamsters, PO 30 mg/kg PDN, plasma

O=C(Nc1ccc([N+](=O)[O-])cc1Cl)c1cc(Cl)ccc1OC(=O)N1CCNCC1 [PDN]
in vitro activity against SARS-CoV-2 (SARS-CoV-2): showed in vitro activity against SARS-CoV-2
fraction unbound at 4 h, 5 µM ([1]; human and rodent (rodent predicted), rodent (predicted) and human plasma): 0.12 to 0.15
fraction unbound at 4 h, 5 µM ([1]; human, human plasma, experimental): 0.152
increase in solubility compared with Nc [2]: 40 fold
solubility kinetic at 6 h [2]: > 43.5 µg/mL
Liver Vmax ([3]; conversion to Nc): 0.0004 mg/s/mg microsomes
Gut Vmax [3, 8]: 0.00001 mg/s/mg microsomes
Liver Vmax ([3]; conversion to Others): 0.0164 mg/s/mg microsomes
AUC0-∞ Observed ([4]; hamsters, IV 3 mg/kg PDN, lung): 45600 (4266) h*ng/g
AUC0-∞ Observed ([4]; hamsters, PO 30 mg/kg PDN, lung): 462000 (28500) h*ng/g
t1/2 Observed ([4]; hamsters, PO 30 mg/kg PDN, plasma, 30 mg/kg): 1.8 (0.13) h
AUC(0-inf) [4, 9]: 631 ng·h/mL
Kp [4, 9]: 72
Vd [4, 9]: 0.74 L
clearance [4, 9]: 8 mL/min
half-life ([4]; male, LVG golden Syrian, hamster, in vivo, iv, 3 mg/kg, hamsters, IV 3 mg/kg PDN, lung): 1.1 h
half-life ([4]; male, LVG golden Syrian, hamster, in vivo, iv, 3 mg/kg, hamsters, IV 3 mg/kg PDN, plasma): 1.1 h
AUC(0-inf) [4, 10]: 4320 ng·h/mL
CL/F [4, 10]: 11.5 mL/min
Cmax [4, 10]: 98000 ng/g and 1060 ng/mL
Kp [4, 10]: 107
Vd/F [4, 10]: 1.78 L
bioavailability [4, 10]: ~64%
Tmax [4, 11]: 1 h
Tmax [4, 12]: 0.5 h
half-life [4, 11]: 2.3 h
half-life [4, 12]: ~1.8 h
Plasma k ([5]; conversion to Nc): 0.0058 s⁻¹
Plasma k ([5]; conversion to Others): 0.0062 s⁻¹
kin vitro,app, PDN-total (total depletion of PDN) ([5]; mouse plasma, 37°C): 0.0120 ± 0.0015 min⁻¹
Plasma k ([6]; conversion to Nc): 0.00026 s⁻¹
Plasma k ([6]; conversion to Others): 0.0022 s⁻¹
kin vitro,app, PDN-total (total depletion of PDN) ([6]; human plasma, 37°C): 0.0025 ± 0.0013 min⁻¹
Liver Vmax ([7]; conversion to Nc): 0.0015 mg/s/mg microsomes
Plasma k ([7]; conversion to Nc): 0.0067 s⁻¹
Gut Vmax [7, 8]: 0.00004 mg/s/mg microsomes
Liver Vmax ([7]; conversion to Others): 0.2310 mg/s/mg microsomes
Plasma k ([7]; conversion to Others): 0.0080 s⁻¹
